For data set [1] the following is noted: Crystal; DTA.
Data set [2] in a line: Molar enthalpy of transition or fusion. The conditions noted are these: Crystal; DSC.

From the NIST ThermoML archive (doi:10.1016/j.tca.2015.10.001) come the findings set out here.

± gives the expanded uncertainty stated by the source.

As to `CCCCCCCCCCCCCCCCCC` [octadecane], the Normal melting temperature in data set [1] came out at 28.40 ± 4 °C. For the same compound, the “Molar enthalpy of transition or fusion” value in data set [2] worked out at 13.8 ± 0.86 kcal/mol.
